Measured values taken from ChEMBL document CHEMBL2029278 (Bioorg Med Chem Lett, 2012).
The source made the active and inactive calls. No cut-off for these calls is given here.

Assays:
Neuraminidase [1] = biological target: T1, Neuraminidase (Influenza A virus, UniProt B4URF0); assay: Inhibition of Influenza A virus H1N1 neuraminidase using 4-MU-NANA as substrate by fluorescence assay
Neuraminidase [2] = biological target: T1, Neuraminidase; assay: Inhibition of Influenza A virus H9N2 neuraminidase using 4-MU-NANA as substrate by fluorescence assay
Neuraminidase [3] = biological target: T1, Neuraminidase; assay: Inhibition of wild type H1N1 swine influenza virus neuraminidase using 4-MU-NANA as substrate by fluorescence assay
Influenza A virus = assay: Antiviral activity against Influenza A virus PR/8/34 H1N1 infected in dog MDCK cells assessed as reduction in virus-induced cytopathic effect at 5 ug/mL; assay type: functional, organism-based; settings: A/Puerto Rico/8/1934(H1N1)

T1 sequence (B4URF0 whole entry): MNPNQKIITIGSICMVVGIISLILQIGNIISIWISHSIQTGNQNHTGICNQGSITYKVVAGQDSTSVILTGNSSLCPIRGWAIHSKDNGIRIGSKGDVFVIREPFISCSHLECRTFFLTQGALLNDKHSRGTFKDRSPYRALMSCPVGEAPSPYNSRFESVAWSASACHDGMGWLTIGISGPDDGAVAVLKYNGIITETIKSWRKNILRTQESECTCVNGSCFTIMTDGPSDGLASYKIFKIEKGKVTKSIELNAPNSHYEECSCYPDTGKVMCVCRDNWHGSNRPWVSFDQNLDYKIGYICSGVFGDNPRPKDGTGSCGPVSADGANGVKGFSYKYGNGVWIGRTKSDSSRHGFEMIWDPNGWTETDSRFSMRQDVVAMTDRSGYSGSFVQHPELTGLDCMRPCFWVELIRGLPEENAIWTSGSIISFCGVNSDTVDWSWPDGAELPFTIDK

| Compound | IC50 (Neuraminidase [1]) | IC50 (Neuraminidase [2]) | IC50 (Neuraminidase [3]) | Activity (Influenza A virus) |
| --- | --- | --- | --- | --- |
| O=c1c2ccccc2oc2cc(O)cc(O)c12 | 102 µM | 67.7 µM | 48.9 µM | Active |
| COc1c2c(cc3c(=O)c4ccccc4oc13)OCO2 | > 370 µM | > 370 µM |  |  |
| O=c1c2cc(O)ccc2oc2cccc(O)c12 | 103 µM | 98.4 µM | 50.6 µM | Active |
| COc1ccc(O)c2c(=O)c3cc(O)ccc3oc12 | 110 µM | 99.1 µM | 36.1 µM | Active |
| COc1c(O)cc2oc3cc(O)ccc3c(=O)c2c1OC | > 347 µM | > 347 µM |  |  |
| O=c1c2cccc(O)c2oc2cc(O)c(O)c(O)c12 | 103 µM | 76.1 µM | 52.6 µM | Active |
| COc1c(O)cc2c(=O)c3ccccc3oc2c1OC | > 367 µM | > 367 µM |  |  |
| O=c1c2cc(O)ccc2oc2cc(O)cc(O)c12 | 110 µM | 101 µM | 54.9 µM | Active |
| COc1cccc2oc3ccc(O)cc3c(=O)c12 | > 413 µM | > 413 µM |  |  |
| COc1cc(O)c2oc3ccccc3c(=O)c2c1OC | > 367 µM | > 367 µM |  |  |
